Data set [1] deals with SPF-bred Sprague Dawley rats. As to the kind of experiment: 28-day oral toxicity study by daily gavage in the rat. Particulars: 28 days daily oral gavage; 3 (C8), 10 (C6), 30 (C4) mg/kg body weight/day. It is filed as in vivo. On the procedure: (§1) A 28-day oral toxicity study with perfluorooctanesulfonate (C8F17SO3^−) was conducted by daily gavage in the rat followed by 14 and 28 day recovery periods. The dose levels for the study were selected to be 0 mg/kg body weight/day for species control, and 3 mg/kg body weight/day for potassium perfluorooctanesulfonate. The potassium perfluorooctanesulfonate was formulated in 1% aqueous carboxymethyl cellulose and administered daily for 28 days by oral gavage to SPF-bred Sprague Dawley rats. A vehicle control group and a treated group were tested, each consisting of 8 male and 8 female rats. An extra 3 rats per sex per group were allowed 14 days of recovery, and another 3 rats per sex per group were allowed 28 days of recovery.

Data set [2] can be described thus: Amount of perfluoroalkylsulfonate in male rat liver tissue (HPLC/ESMS/MS). The format is in vivo. Particulars: male rat liver. On the procedure:
as §1
Extracted liver tissue samples from the sacrificed rats of the study were homogenized and extracted using an ion-pairing extraction procedure. The extracts were quantitatively analyzed using high-pressure liquid chromatography/electrospray tandem mass spectroscopy (HPLC/ESMS/MS) and evaluated.

Data set [3] can be described thus: Surface tension in water (Test Procedure I, Kruss K12 Tensiometer). The format is physicochemical.
Experimental: Test Procedure I—Surface Tension Determination
All surface tensions were determined using a Kruss K12 Tensiometer. […] The program was run using a Wilhelmy platinum plate (PL12) and glass sample vessel (GL7).
A short description of data set [4]: Amount of perfluoroalkylsulfonate in male rat liver tissue (HPLC/ESMS/MS). It is filed as in vivo. Particulars: for Elimination from the body (in words): rat, tested as potassium salt.

As for `O=S(=O)([O-])C(F)(F)C(F)(F)C(F)(F)C(F)(F)F.[K+]` [Example C4F9SO3K, Potassium perfluorobutanesulfonate], the “Observed effects in treated rats” value in data set [1] is recorded as “No clear systematic toxicity, nor organ dysfunction at macroscopic or microscopic levels were observed”. Besides, in data set [2] (day 1, normalized to a feeding level of 3 mg/kg body weight per day), the “Amount (ppm) of Sulfonate Day 1N*” value was 0.31 ppm. The “Amount (ppm) of Sulfonate Day 1” value in data set [2] (day 1 after 28 day dosing at 3 (C8), 10 (C6), 30 (C4) mg/kg/day) is 3.09 ± 1.58 ppm. Moreover, in data set [2] (day 14, normalized to 3 mg/kg body weight per day), the “Amount (ppm) of Sulfonate Day 14N*” value is on record as 0.0126 ppm. Besides, the “Amount (ppm) of Sulfonate Day 14” value in data set [2] (day 14 of recovery) was 0.126 ± 0.084 ppm. For the same compound, the “Amount (ppm) of Sulfonate Day 28N*” value in data set [2] (day 28, normalized to 3 mg/kg body weight per day) is 0.0025 ppm. The “Amount (ppm) of Sulfonate Day 28” value in data set [2] (day 28 of recovery) was 0.025 ± 0.015 ppm. The “Surface Tension (dynes/cm) at Various Surfactant Concentrations: 10 ppm” value in data set [3] (10 ppm in water) worked out at 70 dynes/cm. For the same compound, the “Surface Tension (dynes/cm) at Various Surfactant Concentrations: 100 ppm” value in data set [3] (100 ppm in water) came to 67.5 dynes/cm. The “Surface Tension (dynes/cm) at Various Surfactant Concentrations: 1000 ppm” value in data set [3] (1000 ppm in water) came to 53 dynes/cm. The “Factor lower than C6F13SO3^− in liver” value is reported as greater than 1400 in data set [4] (28 days following completion of feeding); 4400 in data set [4] (28 days following completion of feeding, normalized to the same feeding levels); greater than 100 in data set [4] (immediately following completion of feeding). Besides, the “Elimination from the body (in words)” value in data set [4] is “unexpectedly fast and effective elimination”; in data set [4] (listed as perfluorobutylsulfonate), “eliminates from the body much more effectively than perfluorohexylsulfonate and even more effectively than perfluorooctylsulfonate”.

These data come from patent US7662896B2, “Fluorochemical sulfonamide surfactants” (3M Innovative Properties Company, priority 1999, dated 2010).
